The target of assay [1] is T1, presynaptic α2 -adrenergic receptors (Cavia porcellus, UniProt Q60474).
T1 construct: Stimulation of a guinea-pig ileum; from tissue; host or cells: guinea-pig ileum longitudinal muscle strips
T1 sequence (Q60474 1-464): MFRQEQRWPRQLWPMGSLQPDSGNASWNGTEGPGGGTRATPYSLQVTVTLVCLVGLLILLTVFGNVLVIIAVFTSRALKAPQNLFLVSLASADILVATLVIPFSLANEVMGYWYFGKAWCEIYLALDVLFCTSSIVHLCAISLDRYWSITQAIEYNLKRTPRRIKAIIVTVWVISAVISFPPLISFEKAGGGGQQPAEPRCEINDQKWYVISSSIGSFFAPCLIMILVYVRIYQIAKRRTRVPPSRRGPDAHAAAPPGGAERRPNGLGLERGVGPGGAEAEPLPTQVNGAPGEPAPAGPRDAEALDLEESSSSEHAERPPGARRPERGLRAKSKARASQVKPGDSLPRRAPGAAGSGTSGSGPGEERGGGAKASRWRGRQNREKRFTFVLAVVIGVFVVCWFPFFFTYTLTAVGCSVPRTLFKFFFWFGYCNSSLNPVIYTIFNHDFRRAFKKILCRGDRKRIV
Kind of assay: Inhibition of the contraction of electrically stimulated guinea-pig ileum. An excerpt: (c) Stimulation of a guinea-pig ileum. Longitudinal muscles strips attached to an isometric strain gauge are suspended in Tyrode's solution and are stretched under a tension of 1 g (G. M. DREW. Brit. J. Pharmacol. 64, (1978), 293-300; M. ANDREJAK et al., Naunyn-Schmiedelberg's Arch. Pharmacol. 314, (1980), 83-87).
Electrical stimulation of the parasympathetic nerves associated with the ileum fragments causes a contraction of the muscle. This contraction is reduced in the presence of a presynaptic α2 -agonist and the magnitude by which the contraction is reduced depends on the concentration of the agonist used. This effect is antagonized by the simultaneous presence of an α2 -antagonist such as α-yohimbine. The compounds to be studied have been tested at increasing concentrations ranging from 10^-10 to 10^-3 mole/l.
The concentration (IC50 in mole/l) that reduces by 50% the intensity of the contraction of the muscle is determined.
In the presence of α-yohimbine at a concentration of 10^-6 mole/l, the concentration of the compounds A or B, for example, that is required for reducing muscle contraction intensity by 50% is higher, and becomes greater than 10^-6 mole/l, which gives additional confirmation that the compounds of the invention act really at the level of the presynaptic α2 -adrenergic receptors.

Another assay has as its system cerebral ischemia. Kind of assay: General and permanent cerebral ischemia in rat (ligature of the two common carotid arteries). It counts as in vivo, male Wistar rats. Conditions: 0.76 μg/kg (3.2 nmoles) i.p.; maximum score 17; control 12; P 0.005. As for the experimental part: (a) General and permanent cerebral ischemia in rat. Male Wistar rats (200 to 250 g) are anesthetized by inhalation of halothane (1 to 5%) contained in a N2 O--O2 (70:30) mixture. The two common carotid arteries are ligatured simultaneously close to the passage between the internal carotid and external carotid using the method described by M. LE PONCIN-LAFITTE et al., J. Pharmacol. (Paris), 14, (1983), 99-102.
The compound to be tested is administered intraperitoneally for a first time 30 minutes before making the ligatures, and subsequently 30 minutes and 270 minutes after making the ligatures. On the next day, and on the day after the next, the neurological deficit in the surviving animals is evaluated by the method described by C. CAPDEVILLE et al., J. Pharmacol. (Paris), 15, (1984), 231-237, and by B. KOLB et al., Neurobehav. Toxicol. Teratol. 7, (1985), 71-78. […] Table III gives for compound A, administered intraperitoneally at a dose of 0.76 μg/kg (3.2 nmoles), the mean of the neurological scores determined for the whole group of surviving animals of the control group and of the treated group, as recorded two days after the ligatures. The statistical significance (P) of the difference observed between these mean values is evaluated by the Mann-Whitney test.

Molecules are shown by their SMILES. Like-named read-outs stand apart in the source and are kept apart here. A value given as a limit tells only on which side of the number the result lay.

Regarding `Cl.NC(=O)c1cccc(Cc2c[nH]cn2)c1O` [A, 2-hydroxyl-3-[(1H-imidazol-4-yl)methyl]-benzamide hydrochloride], the IC50 in assay [1] (guinea-pig ileum, electrical stimulation, read-out: IC50 (reduces by 50% the intensity of the contraction of the muscle)) was 7 nM; in assay [1] (in the presence of 10^-6 mole/l of α-yohimbine, read-out: concentration required for reducing muscle contraction intensity by 50%), > 1000 nM. The “Neurological scores after 2 days” value with cerebral ischemia is 15.

Source of the values: patent US4923865A, “Substituted 1-(1H-imidazol-4-yl)alkyl-benzamides as anti-ischemics and as alpha-2-adrenergic receptor agonists” (U C B Societe Anonyme, priority 1988, dated 1990).
